From PubChem BioAssay (NCI)
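All cell lines were grown in 96-well plates and treated with compound for 48 hours. At the TGI there is no net growth.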

How the values were obtained:
Assay in all cases: NCI tumour cell line growth inhibition, 48 h
[1] = system: A498 renal
[2] = system: M14 melanoma
[3] = system: NCI/ADR-RES ovarian
[4] = system: SK-MEL-28 melanoma
[5] = system: KM12 colon
[6] = system: HL-60(TB) leukemia
[7] = system: HT29 colon
[8] = system: OVCAR-4 ovarian
[9] = system: OVCAR-5 ovarian
[10] = system: NCI-H23 lung

Row | SMILES | TGI [1] [µM] | TGI [2] [µM] | TGI [3] [µM] | TGI [4] [µM] | TGI [5] [µM] | TGI [6] [µM] | TGI [7] [µM] | TGI [8] [µM] | TGI [9] [µM] | TGI [10] [µM]
1 | c1ccc2c(c1)CCCN1CCc3ccccc3C21 (stereo not given) | > 100 | > 100 | > 100 | > 100 | > 100 | > 100 | > 100 | > 100 | > 100 | > 100
2 | Cc1nc2ccc([N+](=O)[O-])cc2c(=O)n1C(=S)Nc1cccc(Cl)c1 | 45.9 | 53.6 | 89.7 | 40.6 | 32.2 | 50.6 | 39.6 | > 100 | > 100 | 38.1
3 | CC1=CC=CC(C)(C)CC1(O[Si](C)(C)C)C(F)(F)F (stereo not given) | > 100 | > 100 | > 100 | > 100 | > 100 | > 100 | > 100 | > 100 | > 100 | > 100
4 | COc1ccc2c(c1)C(=O)c1ccccc1C2 | > 100 | > 100 | > 100 | > 100 | > 100 | > 100 | > 100 | > 100 | > 100 | > 100
5 | CN1C(=O)CN(NC(=O)C2=C(O)c3ccc(Br)cc3S(=O)(=O)N2)C1=S | > 100 | > 100 | > 100 | > 100 | > 100 | > 100 | > 100 | > 100 | > 100 | > 100
6 | N#Cc1c2c(c(Nc3ccc(F)cc3)n3c1nc1ccccc13)CCC2 | 28.8 | 18.4 | 25 | 23.7 | 23.7 | > 100 | 3.61 | 28.4 | 13.9 | 17.6
7 | NCCCC(N)C(=O)O (stereo not given) | > 100 | > 100 | > 100 | > 100 | > 100 | > 100 | > 100 | > 100 | > 100 | > 100
8 | O=C1NC(=S)NC(=O)C1C(c1ccccc1[N+](=O)[O-])C1C(=O)NC(=S)NC1=O | > 100 | > 100 | > 100 | > 100 | > 100 | > 100 | > 100 | > 100 | > 100 | > 100
9 | C=CC/C(C(=O)OC)=C(/C(=O)OC)N(CCC)CCC | > 100 | > 100 | > 100 | > 100 | > 100 | 64.4 | > 100 | > 100 | > 100 | > 100
10 | CN1CN(c2ccccc2)C2(CCN(CCCC3(c4cccs4)OCCO3)CC2)C1=O | > 100 | > 100 | > 100 | > 100 | > 100 | > 100 | > 100 | > 100 | > 100 | > 100
11 | CCC[C@H](C)[C@H]1NC(=O)[C@@H](NC(=O)[C@@H](CC(C)C)N(C)C(=O)C2CCCN2C(=O)[C@H](C)O)[C@@H](C)OC(=O)[C@H](CC(C)C)N(C)C(=O)[C@@H]2CCCN2C(=O)[C@H](CC(C)C)NC(=O)[C@@H](C)C(=O)[C@H](C(C)C)OC(=O)C[C@@H]1O (stereo not given in full) | 0.0376 | 0.0848 | 2.62 | < 0.0025 | 1.27 | 0.108 | 0.0102 | 0.0117 | 0.0346 | 0.00447
12 | C[C@]12CC/C(=N\O)C=C1CC[C@@H]1[C@@H]2CC[C@]2(C)C(=N/O)/C(=C/c3cccnc3)C[C@@H]12 | 44.4 | 75 | > 100 | 53.1 | 32.1 | 4.12 | 79.5 | 65.3 | 75.3 | > 100
13 | Cc1cc(O)cc(O)c1N=Nc1ccc([N+](=O)[O-])cc1 | 50.9 | > 100 | 52.9 | 61 | 63.1 | > 100 | > 100 | 57 | 85.1 | 52
14 | Cc1cc(C)c2c(n1)S(=O)(=O)N(CCCN1CCN(c3cccc(C(F)(F)F)c3)CC1)/C(=C(\O)c1ccc(Cl)cc1)C2=O | 16.9 | 18.1 | 16.4 | 29.8 | 14.6 | 6.15 | 13.3 | 15.1 | 18.1 | 14
15 | O=C1/C(=C/c2ccc([N+](=O)[O-])cc2)CNC/C1=C\c1ccc([N+](=O)[O-])cc1 | 37.3 | 28.7 | 26.3 | 5.49 | 4.41 | 10 | 3.57 | > 50.9 | > 69.6 | 9.77
16 | CCOc1ccc(N=C/C=C(\Cl)c2ccc3ccccc3c2)cc1 | > 94.5 | 37.7 | 31.8 | 31.4 | 33.9 | 33.8 | 33.3 | 26.3 | 36.3 | 25.1
17 | O=C(O[C@H](/C=C/c1ccccc1)P1(=O)N(Cc2ccccc2)[C@@H]2CCCC[C@H]2N1Cc1ccccc1)c1ccccc1 | > 100 | > 100 | 43.1 | > 100 | 14.2 | > 100 | 18.4 | 6.19 | > 100 | 7.43
18 | CCOC(=O)C1C(=O)CC(O)(c2ccccc2)C(C(=O)OCC)C1c1ccc(OC)cc1 (stereo not given) | > 100 | 82.9 | > 55.9 | > 100 | 39.8 | > 47.8 | 35.9 | > 100 | > 100 | > 100
19 | C/C(=N/NC(=S)Nc1cccc(C)c1)c1ccccn1 | 3.54 | 2.46 | 0.444 | 7.61 | 4.12 | < 0.158 | 2.39 | 8.93 | 2.67 | 9.92
20 | O=C1C(Br)=Cc2c(Cl)sc(Cl)c21 | 52.1 | 26.7 | > 100 | 41.3 | 20.3 | 6.3 | 27.3 | 8.81 | 36 | 30.6
21 | O=C(O)CNC(=O)c1ccc([As](=O)(O)O)cc1 | > 100 | > 100 | > 100 | > 100 | > 100 | > 100 | > 100 | > 100 | > 100 | > 100
22 | N#Cc1c(OCCF)c2ccccc2n2c1nc1ccccc12 | > 100 | > 100 | > 100 | > 100 | > 100 | > 100 | > 100 | 92 | > 100 | > 100
23 | Cc1cccc(N(CCC#N)S(=O)(=O)c2ccccc2)c1 | > 100 | > 100 | > 100 | > 100 | > 100 | > 100 | > 100 | > 100 | > 100 | > 100
